Test results reported in patent US12391671B2, “Allosteric EGFR inhibitors and methods of use thereof” (Dana-Farber Cancer Institute, Inc., priority 2019, dated 2025).
Where a name gives a salt, the structure may show the parent alone. Read-outs that look alike come from different tables or passages of the source.

Columns and labels:
[1] = test system: EGFR mutant L858R/T790M Ba/F3 cells; test: Ba/F3 cell proliferation model (Cell Titer Glo), EGFR L858R/T790M; assay type: cell-based, murine; settings: 72 hours
Excerpt: Example 26: Ba/F3 Cell Proliferation Models
The EGFR mutant L858R and L858R/T790M Ba/F3 cells have been previously described (Zhou, W., et al. Nature 462, 2009, 1070-1074). All cell lines were maintained in RPM 1640 (Cellgro; Mediatech Inc., Herndon. CA) supplemented with 10% FBS, 100 units/mL penicillin, 100 units/mL streptomycin. The EGFR I941R mutation was introduced via site directed mutagenesis using the Quick Change Site-Directed Mutagenesis kit (Stratagene; La Jolla, CA) according to the manufacturer's instructions. All constructs were confirmed by DNA sequencing. The constructs were shuttled into the retroviral vector JP1540 using the Cre-recombination system (Agilent Technologies, Santa Clara, CA). Ba/F3 cells were then infected with retrovirus per standard protocols, as described previously (Zhou, et al, Nature 2009). Stable clones were obtained by selection in puromycin (2 μg/ml).
Growth and inhibition of growth was assessed by the Cell Titer Glo® assay (Promega, Madison, WI) and was performed according to the manufacturer's instructions. The Cell Titer Glo® assay is a luminescence-based method used to determine the number of viable cells based on quantitation of the ATP present, which is directly proportional to the amount of metabolically active cells present. Ba/F3 cells of different EGFR genotypes were exposed to compounds as a single agent or in combination with 1 μg/mL cetuximab for 72 hours and the number of cells used per experiment was determined empirically as has been previously established (Zhou, et al., Nature 2009). All experimental points were set up in triplicates in 384-well plates and all experiments were repeated at least three times. […] The curves were fitted using a non-linear regression model with a sigmoidal dose response.

EGFR L858R/T790M = EGFR L858R/T790M (Homo sapiens (Human), UniProt P00533, L858R/T790M); test: HTRF-based EGFR biochemical assay (L858R/T790M); settings: 100 μM ATP, enzyme 0.02 nM
EGFR L858R/T790M, sequence (P00533 25-1210 T790M/L858R): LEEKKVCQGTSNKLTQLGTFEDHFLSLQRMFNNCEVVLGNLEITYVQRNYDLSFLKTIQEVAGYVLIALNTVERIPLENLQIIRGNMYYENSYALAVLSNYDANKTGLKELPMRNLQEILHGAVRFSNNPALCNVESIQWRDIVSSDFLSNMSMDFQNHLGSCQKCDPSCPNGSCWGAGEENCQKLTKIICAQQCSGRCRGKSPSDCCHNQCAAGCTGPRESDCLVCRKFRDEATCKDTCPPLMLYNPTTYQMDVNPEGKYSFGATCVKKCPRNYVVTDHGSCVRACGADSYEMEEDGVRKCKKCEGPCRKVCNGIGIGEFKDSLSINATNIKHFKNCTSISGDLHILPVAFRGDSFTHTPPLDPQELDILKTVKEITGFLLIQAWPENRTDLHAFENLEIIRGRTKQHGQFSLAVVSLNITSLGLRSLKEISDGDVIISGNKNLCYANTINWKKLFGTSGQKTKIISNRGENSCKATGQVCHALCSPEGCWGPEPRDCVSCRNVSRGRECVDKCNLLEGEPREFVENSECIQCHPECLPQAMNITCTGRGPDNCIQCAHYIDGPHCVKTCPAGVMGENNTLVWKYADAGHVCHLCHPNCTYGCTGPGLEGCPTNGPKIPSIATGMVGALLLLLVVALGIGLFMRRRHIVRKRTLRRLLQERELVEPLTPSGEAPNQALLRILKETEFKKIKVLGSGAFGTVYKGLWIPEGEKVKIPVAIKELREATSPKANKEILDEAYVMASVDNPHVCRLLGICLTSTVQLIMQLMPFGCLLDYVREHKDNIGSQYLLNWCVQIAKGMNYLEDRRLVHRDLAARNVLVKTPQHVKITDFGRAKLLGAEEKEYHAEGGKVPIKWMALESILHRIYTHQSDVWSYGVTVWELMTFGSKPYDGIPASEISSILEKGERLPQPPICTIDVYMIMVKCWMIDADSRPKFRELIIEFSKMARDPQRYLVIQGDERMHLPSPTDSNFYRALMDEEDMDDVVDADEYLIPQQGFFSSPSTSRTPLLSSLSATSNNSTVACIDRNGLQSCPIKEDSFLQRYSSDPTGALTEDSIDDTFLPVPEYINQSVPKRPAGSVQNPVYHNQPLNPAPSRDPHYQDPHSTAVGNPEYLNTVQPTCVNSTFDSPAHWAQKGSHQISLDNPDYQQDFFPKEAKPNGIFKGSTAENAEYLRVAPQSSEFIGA
Experimental: (§1) Example 25: HTRF-Based EGFR Biochemical Assays
(§2) EGFR biochemical activity measurements were carried out using the homogeneous time-resolved fluorescence (HTRF) assay (Cisbio), inhibitors and DMSO normalizations were first dispensed to empty black low-volume 384-well plates (Corning) with 0300 digital liquid dispenser (HP). All reactions were carried out at room temperature and solutions were added to plates with a Multidrop Combi Reagent Dispenser (ThermoFisher). The reaction mixture (10 μL final volume) contained 1 μM tyrosine kinase peptide-biotin substrate and mutant EGFR in a reaction buffer (50 mM HEPES pH 7.0, 5 mM MgCl2, 1 mM MnCl2, 0.01% BSA, 2 mM TCEP, 0.1 mM NaVO4). Enzyme concentrations were adjusted to accommodate varying kinase activities (L858R 0.1 nM, L858R/T790M 0.02 nM). Enzyme reaction solution (2× concentrations, 5 μL) was added to 384-well plates containing compounds and incubated for 30 mins. Enzyme reactions were initiated with the addition of 5 μL of ATP to a final concentration of 100 μM and reacted for 20 mins. Reactions were quenched with the addition of 10 μL of phospho-tyrosine antibody-Europium(III) cryptate (1-to-180 volume ratio) and Streptavidin-XL665 (46.7 nM) in EDTA-containing detection buffer, then incubated at room temperature for 1 hour, and read with a PHERAstar plate reader (excitation=337 nm, emission=620 nm and 665 nm).

EGFR L858R = EGFR L858R (Homo sapiens (Human), UniProt P00533, L858R); test: HTRF-based EGFR biochemical assay (L858R); settings: 100 μM ATP, enzyme 0.1 nM
EGFR L858R, sequence (P00533 25-1210 L858R): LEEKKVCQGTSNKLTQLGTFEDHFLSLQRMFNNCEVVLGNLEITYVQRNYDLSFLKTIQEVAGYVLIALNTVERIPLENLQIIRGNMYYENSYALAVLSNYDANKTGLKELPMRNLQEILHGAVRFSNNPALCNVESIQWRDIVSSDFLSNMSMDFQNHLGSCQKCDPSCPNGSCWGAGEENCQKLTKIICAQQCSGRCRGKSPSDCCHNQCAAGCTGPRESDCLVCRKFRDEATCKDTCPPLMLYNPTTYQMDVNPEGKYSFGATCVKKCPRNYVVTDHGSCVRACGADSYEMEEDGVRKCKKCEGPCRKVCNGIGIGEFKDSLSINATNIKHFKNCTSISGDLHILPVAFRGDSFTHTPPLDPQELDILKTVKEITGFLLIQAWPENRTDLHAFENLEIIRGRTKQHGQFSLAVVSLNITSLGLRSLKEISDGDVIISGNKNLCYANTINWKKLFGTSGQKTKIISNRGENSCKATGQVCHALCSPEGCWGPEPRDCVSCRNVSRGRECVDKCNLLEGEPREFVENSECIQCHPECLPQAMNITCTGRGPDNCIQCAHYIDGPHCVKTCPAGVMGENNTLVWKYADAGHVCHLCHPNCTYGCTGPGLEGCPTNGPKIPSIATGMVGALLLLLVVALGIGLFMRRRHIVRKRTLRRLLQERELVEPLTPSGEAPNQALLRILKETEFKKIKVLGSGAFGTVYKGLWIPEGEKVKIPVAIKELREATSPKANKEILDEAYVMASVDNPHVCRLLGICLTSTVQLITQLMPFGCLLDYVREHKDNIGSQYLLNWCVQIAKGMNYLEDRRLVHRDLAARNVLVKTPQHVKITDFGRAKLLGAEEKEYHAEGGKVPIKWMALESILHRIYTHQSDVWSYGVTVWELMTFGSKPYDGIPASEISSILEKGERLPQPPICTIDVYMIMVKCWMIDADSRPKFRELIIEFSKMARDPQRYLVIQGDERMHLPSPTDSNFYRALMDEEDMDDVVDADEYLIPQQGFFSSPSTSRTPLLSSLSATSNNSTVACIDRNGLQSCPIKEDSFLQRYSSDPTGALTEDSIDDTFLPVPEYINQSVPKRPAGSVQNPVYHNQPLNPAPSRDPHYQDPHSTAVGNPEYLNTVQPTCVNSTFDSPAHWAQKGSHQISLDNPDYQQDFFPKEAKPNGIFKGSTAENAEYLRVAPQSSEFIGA
Experimental: as §1, §2

[2] = Mus musculus, BaF3, single agent, read-out: Cell IC50 BaF3 EGFR L858R/T790M
[3] = in combination with 1 μg/mL cetuximab, read-out: Cell IC50 BaF3 EGFR L858R/T790M (+cetux.)

IC50 (EGFR L858R/T790M) | IC50 (EGFR L858R) | Structure (SMILES) | also measured
 |  | [2H][C@@](c1nc2ccccc2[nH]1)(c1cc(F)ccc1O)N1Cc2ccc(-c3ccc(C4CCN(C)CC4)cc3)cc2C1=O (single isomer, unassigned) [Compound 037] | IC50 [1, 2]: 160 nM; IC50 [1, 3]: 4 nM
0.5 nM | 1.4 nM | CN1CCC(c2ccc(-c3ccc4c(c3)C(=O)N([C@H](c3nc5ccccc5[nH]3)c3cc(F)ccc3O)C4)cc2)CC1 (single isomer, unassigned) [Compound 037] | 
 |  | [2H][C@](c1nc2ccccc2[nH]1)(c1cc(F)ccc1O)N1Cc2ccc(-c3ccc(C4CCN(C)CC4)cc3)cc2C1=O (single isomer, unassigned) [Compound 038] | IC50 [1, 2]: 930 nM; IC50 [1, 3]: 41 nM
6 nM | 18 nM | CN1CCC(c2ccc(-c3ccc4c(c3)C(=O)N([C@@H](c3nc5ccccc5[nH]3)c3cc(F)ccc3O)C4)cc2)CC1 (single isomer, unassigned) [Compound 038] | 
3 nM | 14 nM | CN1CCC(c2ccc(-c3cc(F)c4c(=O)n([C@H](c5nc6ccccc6[nH]5)c5cc(F)ccc5O)ccc4c3)cc2)CC1 (single isomer, unassigned) [Compound 066] | 
4 nM | 11 nM | CN1CCC(c2ccc(-c3ccc4c(=O)n([C@@H](c5nc6ccccc6[nH]5)c5cc(F)ccc5O)ccc4c3)cc2)CC1 (single isomer, unassigned) [Compound 067] | 
166 nM | 756 nM | CN1CCC(c2ccc(-c3ccc4c(=O)n([C@H](c5nc6ccccc6[nH]5)c5cc(F)ccc5O)ccc4c3)cc2)CC1 (single isomer, unassigned) [Compound 068] | 
232 nM | 219 nM | CN1CCC(c2ccc(-c3ccc4c(c3)C(=S)N([C@H](c3nc5ccccc5[nH]3)c3cc(F)ccc3O)C4)cc2)CC1 (single isomer, unassigned) [Compound 084] | 
2 nM | 1 nM | Cc1c[nH]c([C@@H](c2cc(F)ccc2O)N2Cc3ccc(-c4ccc(C5CCN(C)CC5)cc4)c(F)c3C2=O)n1 (single isomer, unassigned) [Compound 94] | 
59 nM | 92 nM | Cc1c[nH]c([C@H](c2cc(F)ccc2O)N2Cc3ccc(-c4ccc(C5CCN(C)CC5)cc4)c(F)c3C2=O)n1 (single isomer, unassigned) [Compound 095] | 
2 nM | 1 nM | Cc1c[nH]c([C@@H](c2cc(F)ccc2O)N2Cc3ccc(-c4ccc(C5CCN(C)CC5)cc4)cc3C2=O)n1 (single isomer, unassigned) [Compound 104] | 
49 nM | 65 nM | Cc1c[nH]c([C@H](c2cc(F)ccc2O)N2Cc3ccc(-c4ccc(C5CCN(C)CC5)cc4)cc3C2=O)n1 (single isomer, unassigned) [Compound 105] | 
0.8 nM | 3 nM | CN1CCC(c2ccc(-c3ccc4c(n3)C(=O)N([C@@H](c3nc5ccccc5[nH]3)c3cc(F)ccc3O)C4)cc2)CC1 (single isomer, unassigned) [Compound 106] | 
17 nM | 71 nM | CN1CCC(c2ccc(-c3ccc4c(n3)C(=O)N([C@H](c3nc5ccccc5[nH]3)c3cc(F)ccc3O)C4)cc2)CC1 (single isomer, unassigned) [Compound 107] | 
0.9 nM | 2 nM | CN1CCC(c2ccc(-c3ccc4c(=O)n([C@@H](c5nc6ccccc6[nH]5)c5cc(F)ccc5O)ccc4c3)cc2)CC1 (single isomer, unassigned) [Compound 114] | 
157 nM | 132 nM | CN1CCC(c2ccc(-c3ccc4c(=O)n([C@H](c5nc6ccccc6[nH]5)c5cc(F)ccc5O)ccc4c3)cc2)CC1 (single isomer, unassigned) [Compound 115] | 
 |  | CN1CCC(c2ccc(-c3cc(F)c4c(=O)n([C@@H](c5nc6ccccc6[nH]5)c5cc(F)ccc5O)ccc4c3)cc2)CC1 (single isomer, unassigned) [Compound 116, dihydrochloride] | IC50 (EGFR L858R/T790M; dihydrochloride): 0.2 nM; IC50 (EGFR L858R; dihydrochloride): 0.8 nM
 |  | CN1CCC(c2ccc(-c3cc(F)c4c(=O)n([C@H](c5nc6ccccc6[nH]5)c5cc(F)ccc5O)ccc4c3)cc2)CC1 (single isomer, unassigned) [Compound 117, 2-[1H-Benzimidazol-2-yl-(5-fluoro-2-hydroxy-phenyl)methyl-8-fluoro-6-[3-fluoro-4-(1-methyl-4-piperidyl)phenyl]isoquinolin-1-one; dihydrochloride] | IC50 (EGFR L858R/T790M; dihydrochloride): 81 nM; IC50 (EGFR L858R; dihydrochloride): > 100 nM
 |  | O=C1c2cc(-c3ccc(N4CCNCC4)cc3)ccc2CN1C(c1nc2ccccc2[nH]1)c1cc(F)ccc1O (stereo not shown) [Compound 021, 2-[1H-Benzimidazol-2-yl-(5-fluoro-2-hydroxy-phenyl)methyl]-6-(4-piperazin-1-yiphenyl)isoindolin-1-one;hydrochioride] | IC50 [1, 2]: 1650 nM; IC50 [1, 3]: 20 nM
 |  | CN1CCC(c2ccc(-c3ccc4c(c3)C(=O)N(C(c3nc5ccccc5[nH]3)c3cccc(Cl)c3O)C4)cc2)CC1 (stereo not shown) [Compound 043, 2-[1H-benzimidazol-2-yl-(3-chloro-2-hydroxy-phenyl)-methyl]-6-[4-(1-methyl-4-piperidyl)phenyl]isoindolin-1-one; dihydrochloride] | IC50 [1, 2]: 4940 nM; IC50 [1, 3]: 580 nM
4 nM | 3 nM | Cc1cnc(C(c2cc(F)ccc2O)N2Cc3ccc(-c4ccc(C5CCN(C)CC5)cc4)c(F)c3C2=O)[nH]1 (stereo not shown) [Compound 093, 7-Fluoro-2-[(5-fluoro-2-hydroxy-phenyl)-(5-methyl-1H-imidazol-2-yl)methyl]-6-[4-(1-methyl-4-piperidyl)phenyl]isoindolin-1-one] | 
0.8 nM | 3 nM | Cc1c(-c2ccc(C3CCN(C)CC3)cc2)ccc2cn(C(c3nc4ccccc4[nH]3)c3cc(F)ccc3O)nc12 (stereo not shown) [Compound 096, 2-[1H-Benzimidazol-2-yl-[7-methyl-6-[4-(1-methyl-4-piperidyl)phenyl]indazol-2-yl]methyl]-4-fluoro-phenol; dihydrochloride] | 
36 nM | 16 nM | CN1CCC(c2ccc(-c3cc4nn(C(c5nc6ccccc6[nH]5)c5cc(F)ccc5O)cc4cc3O)cc2)CC1 (stereo not shown) [Compound 097, 2-[1H-Benzimidazol-2-yl-(5-fluoro-2-hydroxy-phenyl)methyl]-6-[4-(1-methyl-4-piperidyl)phenyl]indazol-5-ol] | 
4 nM | 6 nM | Cc1cc2cn(C(c3nc4ccccc4[nH]3)c3cc(F)ccc3O)nc2cc1-c1ccc(C2CCN(C)CC2)cc1 (stereo not shown) [Compound 098, 2-[1H-Benzimidazol-2-yl-[5-methyl-6-[4-(1-methyl-4-piperidyl)phenyl]-indazol-2-yl]methyl]-4-fluoro-phenol; dihydrochloride] | 
8 nM | 10 nM | COc1cc2cn(C(c3nc4ccccc4[nH]3)c3cc(F)ccc3O)nc2cc1-c1ccc(C2CCN(C)CC2)cc1 (stereo not shown) [Compound 099, 2-[1H-Benzimidazol-2-yl-[5-methoxy-6-[4-(1-methyl-4-piperidyl)phenyl]indazol-2-yl]methyl]-4-fluoro-phenol] | 
0.8 nM | 4 nM | CN1CCC(c2ccc(-c3ccc4cn(C(c5nc6c(F)cccc6[nH]5)c5cc(F)ccc5O)nc4c3F)cc2)CC1 (stereo not shown) [Compound 101, 4-Fluoro-2-((4-fluoro-1H-benzo[d]-imidazol-2-yl)(7-fluoro-6-(4-(1-methylpiperidin-4-yl)phenyl)-2H-indazol-2-yl)methyl)phenol; trifluoroacetate] | 
